# Laboratory results reported in US4575498A, “Method for restoring depleted purine nucleotide pools” (priority 1983, dated 1986).
# “Also recorded” adds a separate entry of the source.
# T1: adenylosuccinate lyase (cardiac muscle) (Mus musculus, UniProt P54822)
# T1 construct: the hearts and gastrocnemius muscles were excised, weighed, and homogenized to a slurry; from tissue; host or cells: heart of six-week-old C57BL/6J mice; dialyzed 10,000×g supernatant
# T1 sequence (P54822 2-484 limits assumed): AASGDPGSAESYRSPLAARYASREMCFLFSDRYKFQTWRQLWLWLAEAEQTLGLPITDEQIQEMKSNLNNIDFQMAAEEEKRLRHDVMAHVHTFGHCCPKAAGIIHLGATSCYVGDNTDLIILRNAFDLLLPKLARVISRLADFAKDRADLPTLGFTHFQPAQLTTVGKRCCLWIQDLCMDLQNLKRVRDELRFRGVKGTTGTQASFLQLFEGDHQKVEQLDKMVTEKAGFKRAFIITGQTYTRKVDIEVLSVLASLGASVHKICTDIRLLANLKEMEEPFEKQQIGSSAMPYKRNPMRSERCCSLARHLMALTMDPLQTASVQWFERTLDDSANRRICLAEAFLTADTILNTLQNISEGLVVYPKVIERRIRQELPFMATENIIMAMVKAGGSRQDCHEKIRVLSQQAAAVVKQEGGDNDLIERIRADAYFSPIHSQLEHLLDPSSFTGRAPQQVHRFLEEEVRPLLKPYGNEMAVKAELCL
# T2: adenylosuccinate lyase (skeletal muscle) (Mus musculus, UniProt P54822)
# T2 construct: the hearts and gastrocnemius muscles were excised, weighed, and homogenized to a slurry; from tissue; host or cells: gastrocnemius (skeletal) muscle of six-week-old C57BL/6J mice; dialyzed 10,000×g supernatant
# T2 sequence (P54822 2-484 limits assumed): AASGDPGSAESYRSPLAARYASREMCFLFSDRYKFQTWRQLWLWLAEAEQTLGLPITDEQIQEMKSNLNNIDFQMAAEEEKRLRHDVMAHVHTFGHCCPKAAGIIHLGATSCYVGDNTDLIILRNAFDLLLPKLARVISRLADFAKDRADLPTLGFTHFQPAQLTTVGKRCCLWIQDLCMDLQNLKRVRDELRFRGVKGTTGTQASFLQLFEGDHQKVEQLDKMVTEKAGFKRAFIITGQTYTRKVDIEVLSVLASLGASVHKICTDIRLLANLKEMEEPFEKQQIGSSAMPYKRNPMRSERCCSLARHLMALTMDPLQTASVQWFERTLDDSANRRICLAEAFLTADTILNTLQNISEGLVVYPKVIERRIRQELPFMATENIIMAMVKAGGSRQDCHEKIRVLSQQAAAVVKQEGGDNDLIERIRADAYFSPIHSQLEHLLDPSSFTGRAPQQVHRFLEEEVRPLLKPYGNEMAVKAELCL
# Experiments:
# [1] = biological target: T1, adenylosuccinate lyase (cardiac muscle); assay: Assay of adenylosuccinate lyase, cardiac enzyme; assay type: biochemical, C57BL/6J mice
# Protocol: (§1) Preparation and Assay of Adenylosuccinate Lyase--Six-week-old C57BL/6J mice were killed, and the hearts and gastrocnemius muscles were excised, weighed, and homogenized to a slurry in 4 volumes of 50 mM Tris-HCl, pH 7.4 at 25° C. containing 1 mM EDTA and 1 mM β-mercaptoethanol in a TenBroeck glass homogenizer. The homogenate was centrifuged at 10,000×g for 15 min and the supernatant was dialyzed against 1,000 volumes of the extraction buffer for 2 h at 4° C. The lyase activity was partially stabilized by the addition of EDTA and β-mercaptoethanol, but some activity was lost even on storage at -70° C.
# (§2) The assays were carried out at pH 7.4 were reaction mixtures that contained 50 mM Tris-HCl buffer, 1 mM EDTA, 1 mM β-mercaptoethanol, 20 μM adenylosuccinate, and the enzyme extract (protein concentration, 0.13-0.20 mg/ml). The decrease in absorbance at 280 nm was measured using a Gilford recording spectrophotometer. All assays were done at 25° C. and were linear with respect to time of incubation and with the amount of protein in extract added to the assay.
# (§3) These are average values for experiments with 4 separate enzyme preparations. The experimental points in the double reciprocal plots were fitted to the best line by the method of least squares with all points being weighted equally.
# [2] = biological target: T2, adenylosuccinate lyase (skeletal muscle); assay: Assay of adenylosuccinate lyase, skeletal muscle enzyme; assay type: biochemical, C57BL/6J mice
# Protocol: as §1, §2, §3
# cardiovascular system = settings: prior art statement; cited from earlier work
# [3] = substrate: O=C(O)C[C@H](Nc1ncnc2c1ncn2[C@@H]1O[C@H](COP(=O)(O)O)[C@@H](O)[C@H]1O)C(=O)O; assay: Assay of adenylosuccinate lyase, cardiac enzyme; assay type: biochemical, C57BL/6J mice; settings: other: cardiac muscle enzyme, pH 7.4, 25° C., 4 enzyme preparations
# Protocol: as §1, §2, §3
# [4] = substrate: O=C(O)C[C@H](Nc1ncnc2c1ncn2[C@@H]1O[C@H](COP(=O)(O)O)[C@@H](O)[C@H]1O)C(=O)O; assay: Assay of adenylosuccinate lyase, skeletal muscle enzyme; assay type: biochemical, C57BL/6J mice; settings: other: skeletal muscle enzyme, pH 7.4, 25° C., 4 enzyme preparations
# Protocol: as §1, §2, §3
molecule,measurement,setting,value
"NC(=O)c1ncn([C@@H]2O[C@H](COP(=O)(O)O)[C@@H](O)[C@H]2O)c1N [AICAR, 5-Amino-4-imidazolecarboxamide Ribotide]",Ki,[1],4.5 ± 1.7 µM
same,maximal AICAR concentration exceeding Ki of adenylosuccinate lyase,[1]; cardiac muscle,180 fold
same,Ki,[2],7.6 ± 3.2 µM
same,maximal AICAR concentration exceeding Ki of adenylosuccinate lyase,[2]; skeletal muscle,18 fold
Nc1ncnc2c1ncn2[C@@H]1O[C@H](CO)[C@@H](O)[C@H]1O [adenosine],hemodynamic effects,cardiovascular system,profound changes in the hemodynamic status; also recorded: deleterious hemodynamic effects
O=c1[nH]cnc2nc[nH]c12 [hypoxanthine],hemodynamic effects,cardiovascular system,deleterious hemodynamic effects
OC[C@H]1O[C@@H](n2cnc3c(O)ncnc32)[C@H](O)[C@@H]1O [inosine],hemodynamic effects,cardiovascular system,deleterious hemodynamic effects
"adenylosuccinate lyase (cardiac muscle) (Mus musculus) (protein, the hearts and gastrocnemius muscles were excised, weighed, and homogenized to a slurry; from tissue; host or cells: heart of six-week-old C57BL/6J mice; dialyzed 10,000×g supernatant) AASGDPGSAESYRSPLAARYASREMCFLFSDRYKFQTWRQLWLWLAEAEQTLGLPITDEQIQEMKSNLNNIDFQMAAEEEKRLRHDVMAHVHTFGHCCPKAAGIIHLGATSCYVGDNTDLIILRNAFDLLLPKLARVISRLADFAKDRADLPTLGFTHFQPAQLTTVGKRCCLWIQDLCMDLQNLKRVRDELRFRGVKGTTGTQASFLQLFEGDHQKVEQLDKMVTEKAGFKRAFIITGQTYTRKVDIEVLSVLASLGASVHKICTDIRLLANLKEMEEPFEKQQIGSSAMPYKRNPMRSERCCSLARHLMALTMDPLQTASVQWFERTLDDSANRRICLAEAFLTADTILNTLQNISEGLVVYPKVIERRIRQELPFMATENIIMAMVKAGGSRQDCHEKIRVLSQQAAAVVKQEGGDNDLIERIRADAYFSPIHSQLEHLLDPSSFTGRAPQQVHRFLEEEVRPLLKPYGNEMAVKAELCL",Km,[3],2.2 ± 0.3 µM
"adenylosuccinate lyase (skeletal muscle) (Mus musculus) (protein, the hearts and gastrocnemius muscles were excised, weighed, and homogenized to a slurry; from tissue; host or cells: gastrocnemius (skeletal) muscle of six-week-old C57BL/6J mice; dialyzed 10,000×g supernatant) AASGDPGSAESYRSPLAARYASREMCFLFSDRYKFQTWRQLWLWLAEAEQTLGLPITDEQIQEMKSNLNNIDFQMAAEEEKRLRHDVMAHVHTFGHCCPKAAGIIHLGATSCYVGDNTDLIILRNAFDLLLPKLARVISRLADFAKDRADLPTLGFTHFQPAQLTTVGKRCCLWIQDLCMDLQNLKRVRDELRFRGVKGTTGTQASFLQLFEGDHQKVEQLDKMVTEKAGFKRAFIITGQTYTRKVDIEVLSVLASLGASVHKICTDIRLLANLKEMEEPFEKQQIGSSAMPYKRNPMRSERCCSLARHLMALTMDPLQTASVQWFERTLDDSANRRICLAEAFLTADTILNTLQNISEGLVVYPKVIERRIRQELPFMATENIIMAMVKAGGSRQDCHEKIRVLSQQAAAVVKQEGGDNDLIERIRADAYFSPIHSQLEHLLDPSSFTGRAPQQVHRFLEEEVRPLLKPYGNEMAVKAELCL",Km,[4],4.5 ± 1.5 µM
